Laboratory results: patent US6355799B1, “Substituted benzene compounds, process for their preparation, and herbicidal and defoliant compositions containing them” (ISK Americas Incorporated, priority 1997, dated 2002)
Blank lines part the entries; values can stand above or below the molecule they belong to.

Assays:
[1] = tested on: sicklepod (Cassia obtusifolia, CASOB); experiment: Pre-emerge test, greenhouse herbicide activity screening; format: in vivo; conditions: pre-emerge, phytotoxicity rating 0-100 at 14 days after application
How it was run: (§1)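 Compounds in acetone were track-sprayed at 15–1000 g ai/ha: pre-emergence onto soil sown the previous day, then top-watered to incorporate and later bottom-watered; post-emergence onto 2–3 leaf plants with 0.25% v/v surfactant, bottom-watered only. Ratings on a 0–100 phytotoxicity scale were taken at day 14.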

[2] = tested on: barnyardgrass (Echinochloa crus-galli, ECHCG); experiment: as above; format: in vivo; conditions: pre-emerge, phytotoxicity rating 0-100 at 14 days after application
How it was run: as §1

[3] = tested on: large crabgrass (Digitaria sanguinalis, DIGSA); experiment: as above; format: in vivo; conditions: pre-emerge, phytotoxicity rating 0-100 at 14 days after application
How it was run: as §1

[4] = tested on: lambsquarters (Chenopodium album, CHEAL); experiment: as above; format: in vivo; conditions: pre-emerge, phytotoxicity rating 0-100 at 14 days after application
How it was run: as §1

[5] = tested on: johnsongrass (Sorghum halepense, SORHA); experiment: as above; format: in vivo; conditions: pre-emerge, phytotoxicity rating 0-100 at 14 days after application
How it was run: as §1

[6] = tested on: velvetleaf (Abutilon theophrasti, ABUTH); experiment: as above; format: in vivo; conditions: pre-emerge, phytotoxicity rating 0-100 at 14 days after application
How it was run: as §1

[7] = tested on: ivyleaf morningglory (Ipomoea hederacea, IPOHE); experiment: as above; format: in vivo; conditions: pre-emerge, phytotoxicity rating 0-100 at 14 days after application
How it was run: as §1

[8] = tested on: green foxtail (Setaria viridis, SETVI); experiment: as above; format: in vivo; conditions: pre-emerge, phytotoxicity rating 0-100 at 14 days after application
How it was run: as §1

[9] = tested on: redroot pigweed (Amaranthus retroflexus, AMARE); experiment: as above; format: in vivo; conditions: pre-emerge, phytotoxicity rating 0-100 at 14 days after application
How it was run: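 Plants grown in 10 cm pots of sandy loam mix received acetone-dissolved compounds through a moving flat-fan nozzle. Doses ranged from 15 to 1000 g ai/ha. Pre-emerge pots were seeded one day earlier, post-emerge pots 8–21 days earlier. Fourteen days on, each pot was graded 0–100 for damage.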

[10] = tested on: soybean (Glycine max L., var. Pella 86, SOY); experiment: Pre-emerge test, crop safety; format: in vivo; conditions: crop damage, pre-emerge, phytotoxicity rating 0-100 at 14 days after application
How it was run: (§2)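 Fourteen days after spraying, crop and weed injury was graded visually from 0, no effect, to 100, every plant dead. Test substances were dissolved in acetone and applied at 15–1000 g ai/ha with a flat-fan nozzle. Application was either pre-emergence, one day after sowing, or post-emergence at the 2–3 leaf stage.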

[11] = tested on: upland rice (Oryza sp., var. Tebonnet, RICE); experiment: Pre-emerge test, crop safety; format: in vivo; conditions: crop damage, pre-emerge, phytotoxicity rating 0-100 at 14 days after application
How it was run: as §2

[12] = tested on: field corn (Zea mays L., var. Dekalb 535, CORN); experiment: Pre-emerge test, crop safety; format: in vivo; conditions: crop damage, pre-emerge, phytotoxicity rating 0-100 at 14 days after application
How it was run: as §2

[13] = tested on: sicklepod (Cassia obtusifolia, CASOB); experiment: Post-emerge test, greenhouse herbicide activity screening; format: in vivo; conditions: post-emerge, phytotoxicity rating 0-100 at 14 days after application
How it was run: (§3)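 Compounds in acetone were track-sprayed at 187 l/ha, 15–1000 g ai/ha, onto sandy loam pots. Pre-emerge seeds were sown one day before spraying, with surface watering afterwards. Post-emerge plants were at the 2–3 leaf stage and sprayed with 0.25% v/v non-ionic surfactant. Injury was rated 0–100 at 14 days.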

[14] = tested on: barnyardgrass (Echinochloa crus-galli, ECHCG); experiment: as above; format: in vivo; conditions: post-emerge, phytotoxicity rating 0-100 at 14 days after application
How it was run: as §3

[15] = tested on: large crabgrass (Digitaria sanguinalis, DIGSA); experiment: as above; format: in vivo; conditions: post-emerge, phytotoxicity rating 0-100 at 14 days after application
How it was run: as §3

[16] = tested on: redroot pigweed (Amaranthus retroflexus, AMARE); experiment: as above; format: in vivo; conditions: post-emerge, phytotoxicity rating 0-100 at 14 days after application
How it was run: as §3

[17] = tested on: lambsquarters (Chenopodium album, CHEAL); experiment: as above; format: in vivo; conditions: post-emerge, phytotoxicity rating 0-100 at 14 days after application
How it was run: as §3

[18] = tested on: johnsongrass (Sorghum halepense, SORHA); experiment: as above; format: in vivo; conditions: post-emerge, phytotoxicity rating 0-100 at 14 days after application
How it was run: as §3

[19] = tested on: velvetleaf (Abutilon theophrasti, ABUTH); experiment: as above; format: in vivo; conditions: post-emerge, phytotoxicity rating 0-100 at 14 days after application
How it was run: as §3

[20] = tested on: ivyleaf morningglory (Ipomoea hederacea, IPOHE); experiment: as above; format: in vivo; conditions: post-emerge, phytotoxicity rating 0-100 at 14 days after application
How it was run: as §3

[21] = tested on: green foxtail (Setaria viridis, SETVI); experiment: as above; format: in vivo; conditions: post-emerge, phytotoxicity rating 0-100 at 14 days after application
How it was run: as §3

[22] = tested on: soybean (Glycine max L., var. Pella 86, SOY); experiment: Post-emerge test, crop safety; format: in vivo; conditions: crop damage rating 0-100 at 14 days after application
How it was run: (§4)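 Rating: 0–100 visual injury, 14 DAA. Application: acetone, 187 l/ha, 15–1000 g ai/ha, flat-fan track sprayer with nozzle 40–45 cm above soil or canopy. Post-emerge runs used 0.25% v/v surfactant on 2–3 leaf plants.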

[23] = tested on: upland rice (Oryza sp., var. Tebonnet, RICE); experiment: Post-emerge test, crop safety; format: in vivo; conditions: post-emerge, crop damage rating 0-100 at 14 days after application
How it was run: as §4

[24] = tested on: field corn (Zea mays L., var. Dekalb 535, CORN); experiment: Post-emerge test, crop safety; format: in vivo; conditions: post-emerge, crop damage rating 0-100 at 14 days after application
How it was run: as §4

SMILES: C#CCOc1c(Cl)cc(F)c(-n2nnn(CCCF)c2=O)c1N [Compound 5-17, 1-(2-amino-4-chloro-6-fluoro-3-propargyloxyphenyl)-4-(3-fluoroproyl)-1,4-dihydro-5-oxo-5H-tetrazole]
Pre-emerge Herbicidal Activity CASOB ([1]; rate 63 g ai/ha): 0 | Pre-emerge Herbicidal Activity CASOB ([1]; rate 250 g ai/ha): 30 | Pre-emerge Herbicidal Activity ECHCG ([2]; rate 63 g ai/ha): 0 | Pre-emerge Herbicidal Activity ECHCG ([2]; rate 250 g ai/ha): 40 | Pre-emerge Herbicidal Activity DIGSA ([3]; rate 63 g ai/ha): 30 | Pre-emerge Herbicidal Activity DIGSA ([3]; rate 250 g ai/ha): 50 | Pre-emerge Herbicidal Activity CHEAL ([4]; rate 63 g ai/ha): 70 | Pre-emerge Herbicidal Activity CHEAL ([4]; rate 250 g ai/ha): 100 | Pre-emerge Herbicidal Activity SORHA ([5]; rate 63 g ai/ha): 40 | Pre-emerge Herbicidal Activity SORHA ([5]; rate 250 g ai/ha): 70 | Pre-emerge Herbicidal Activity ABUTH ([6]; rate 63 g ai/ha): 40 | Pre-emerge Herbicidal Activity ABUTH ([6]; rate 250 g ai/ha): 100 | Pre-emerge Herbicidal Activity IPOHE ([7]; rate 63 g ai/ha): 0 | Pre-emerge Herbicidal Activity IPOHE ([7]; rate 250 g ai/ha): 0 | Pre-emerge Herbicidal Activity SETVI ([8]; rate 63 g ai/ha): 95 | Pre-emerge Herbicidal Activity SETVI ([8]; rate 250 g ai/ha): 100 | Pre-emerge Herbicidal Activity AMARE ([9]; rate 63 g ai/ha): 30 | Pre-emerge Herbicidal Activity AMARE ([9]; rate 250 g ai/ha): 100 | Pre-emerge Herbicidal Activity SOY ([10]; rate 63 g ai/ha): 0 | Pre-emerge Herbicidal Activity SOY ([10]; rate 250 g ai/ha): 0 | Pre-emerge Herbicidal Activity RICE ([11]; rate 63 g ai/ha): 20 | Pre-emerge Herbicidal Activity RICE ([11]; rate 250 g ai/ha): 20 | Pre-emerge Herbicidal Activity CORN ([12]; rate 63 g ai/ha): 0 | Pre-emerge Herbicidal Activity CORN ([12]; rate 250 g ai/ha): 0 | Post-emerge Herbicidal Activity CASOB ([13]; 63 g ai/ha): 0 | Post-emerge Herbicidal Activity CASOB ([13]; 250 g ai/ha): 30 | Post-emerge Herbicidal Activity ECHCG ([14]; 63 g ai/ha): 0 | Post-emerge Herbicidal Activity ECHCG ([14]; 250 g ai/ha): 20 | Post-emerge Herbicidal Activity DIGSA ([15]; 63 g ai/ha): 0 | Post-emerge Herbicidal Activity DIGSA ([15]; 250 g ai/ha): 0 | Post-emerge Herbicidal Activity AMARE ([16]; 63 g ai/ha): 0 | Post-emerge Herbicidal Activity AMARE ([16]; 250 g ai/ha): 30 | Post-emerge Herbicidal Activity CHEAL ([17]; 63 g ai/ha): 20 | Post-emerge Herbicidal Activity CHEAL ([17]; 250 g ai/ha): 60 | Post-emerge Herbicidal Activity SORHA ([18]; 63 g ai/ha): 0 | Post-emerge Herbicidal Activity SORHA ([18]; 250 g ai/ha): 10 | Post-emerge Herbicidal Activity ABUTH ([19]; 63 g ai/ha): 90 | Post-emerge Herbicidal Activity ABUTH ([19]; 250 g ai/ha): 100 | Post-emerge Herbicidal Activity IPOHE ([20]; 63 g ai/ha): 30 | Post-emerge Herbicidal Activity IPOHE ([20]; 250 g ai/ha): 40 | Post-emerge Herbicidal Activity SETVI ([21]; 63 g ai/ha): 0 | Post-emerge Herbicidal Activity SETVI ([21]; 250 g ai/ha): 80 | Post-emerge Herbicidal Activity SOY ([22]; 63 g ai/ha): 15 | Post-emerge Herbicidal Activity SOY ([22]; 250 g ai/ha): 70 | Post-emerge Herbicidal Activity RICE ([23]; 63 g ai/ha): 10 | Post-emerge Herbicidal Activity RICE ([23]; 250 g ai/ha): 50 | Post-emerge Herbicidal Activity CORN ([24]; 63 g ai/ha): 0 | Post-emerge Herbicidal Activity CORN ([24]; 250 g ai/ha): 10

melting point: 156 to 157 °C
SMILES: COc1c(Cl)cc(F)c(-n2ncc(C(F)(F)F)cc2=O)c1N [Compound 11-4, 2-(2-amino-4-chloro-6-fluoro-3-methoxyphenyl)-5-trifluoromethylpyridazin-3-one]
